In patent US10660967B2, “Curcumin conjugates and methods of use thereof” (priority 2016, dated 2020):

System: carrageenan induced paw edema
Test: Anti-inflammatory activity: acute carrageenan induced paw edema in rats
Format: in vivo, Wister rats
Details: 10 mg kg^−1 indomethacin mol equivalent; for % inhibition of edema / Mean edema thickness: intraperitoneally; for Mean edema thickness: mean ± SE; for Potency (% inhibition of edema relative to that of indomethacin reference standard): at 4 h effect
Experimental: The anti-inflammatory activity of the tested compounds was determined in vivo by the acute carrageenan induced paw edema standard method in rats. See, Naumov, et al., Bioorg. Med. Chem. Lett, 25: 2314-2320 (2015), Tiwari, et al., Org. Biomol. Chem, 12: 7238-7249 (2014), Girgis, et al., Eur. J. Med. Chem, 50: 1-8 (2012), Barsoum, et al., Eur. J. Med. Chem, 44: 2172-2177 (2009), Girgis, et al., Eur. J. Med. Chem, 44: 1972-1977 (2009), Girgis, et al., Eur. J. Med. Chem, 44: 1257-1264 (2009), Girgis, et al., Eur. J. Med. Chem, 44: 91-100 (2009), Girgis, et al., Eur. J. Med. Chem, 43: 2116-2121 (2008), Girgis, et al., Bioorg. Med. Chem, 14: 8527-8532 (2006), and Barsoum, et al., Bioorg. Med. Chem, 14: 3929-3937 (2006).
Adult Wister rats of either sex (pregnant female animals were excluded) weighing 120-150 g were divided into 18 groups of 6 animals each. […] The control group was given DMSO only. Carrageenan paw edema was induced by subcutaneous injection of freshly prepared 1% solution of carrageenan in saline (0.9%, 0.1 ml per rat) into subplantar tissue of the right hind paw of rats. The thickness of the paw was measured (in mm) after successive time intervals (1, 2,3,4 and 24 h) and compared with the initial hind paw thickness of each rat for determining the edema thickness. Data were collected, checked, revised and analyzed. Quantitative variables from normal distribution were expressed as means±SE “standard error”. The anti-inflammatory activity was expressed as percentage inhibition of edema thickness in treated animals in comparison with the control group according to eqn. (1)
Where, Vc and Vt are the mean of edema paw thickness for the control and tested compound treated animal groups, respectively.

Row | Compound | % inhibition of edema (1 h) [%] | Mean edema thickness (1 h) [mm] | % inhibition of edema (2 h) [%] | Mean edema thickness (2 h) [mm] | % inhibition of edema (3 h) [%] | Mean edema thickness (3 h) [mm] | % inhibition of edema (4 h) [%] | Mean edema thickness (4 h) [mm] | % inhibition of edema (24 h) [%] | Mean edema thickness (24 h) [mm] | Potency (% inhibition of edema relative to that of indomethacin reference standard)
1 | COc1cc(/C=C/C(=O)CC(=O)/C=C/c2ccc(OC(=O)CCNC(=O)OC(C)(C)C)c(OC)c2)ccc1OC(=O)CCNC(=O)OC(C)(C)C [Compound 27] | 31 | 1.66 ± 0.19 | 33 | 1.38 ± 0.11 | 45 | 0.99 ± 0.12 | 61 | 0.55 ± 0.07 | 28 | 0.60 ± 0.03 | 70
2 | COc1cc(/C=C/C(=O)CC(=O)/C=C/c2ccc(OC(=O)[C@H](CCSC)NC(=O)OC(C)(C)C)c(OC)c2)ccc1OC(=O)[C@H](CCSC)NC(=O)OC(C)(C)C [Compound 28] | 34 | 1.59 ± 0.21 | 36 | 1.31 ± 0.18 | 44 | 1.01 ± 0.17 | 88 | 0.17 ± 0.02 | 23 | 0.64 ± 0.05 | 101
3 | COc1cc(/C=C/C(=O)CC(=O)/C=C/c2ccc(OC(=O)[C@@H](CCSC)NC(=O)OC(C)(C)C)c(OC)c2)ccc1OC(=O)[C@@H](CCSC)NC(=O)OC(C)(C)C [Compound 29] | 58 | 1.01 ± 0.14 | 69 | 0.63 ± 0.11 | 74 | 0.47 ± 0.08 | 89 | 0.15 ± 0.06 | 41 | 0.49 ± 0.09 | 102
4 | COc1cc(/C=C/C(=O)CC(=O)/C=C/c2ccc(OC(=O)[C@@H](NC(=O)OC(C)(C)C)C(C)C)c(OC)c2)ccc1OC(=O)[C@@H](NC(=O)OC(C)(C)C)C(C)C [Compound 30] | 13 | 2.09 ± 0.21 | 24 | 1.57 ± 0.19 | 25 | 1.34 ± 0.11 | 43 | 0.80 ± 0.08 | 30 | 0.58 ± 0.10 | 49
5 | CC[C@H](C)[C@H](NC(=O)OC(C)(C)C)C(=O)Oc1ccc(/C=C/C(=O)CC(=O)/C=C/c2ccc(OC(=O)[C@@H](NC(=O)OC(C)(C)C)[C@@H](C)CC)c(OC)c2)cc1OC [Compound 31] | 33 | 1.61 ± 0.11 | 38 | 1.27 ± 0.07 | 49 | 0.91 ± 0.05 | 51 | 0.69 ± 0.02 | 41 | 0.49 ± 0.03 | 59
6 | COc1cc(/C=C/C(=O)CC(=O)/C=C/c2ccc(OC(=O)[C@H](CCC(N)=O)NC(=O)OC(C)(C)C)c(OC)c2)ccc1OC(=O)[C@H](CCC(N)=O)NC(=O)OC(C)(C)C [Compound 32] | 10 | 2.16 ± 0.17 | 16 | 1.73 ± 0.09 | 32 | 1.22 ± 0.12 | 41 | 0.83 ± 0.06 | 57 | 0.36 ± 0.02 | 47
7 | COc1cc(/C=C/C(=O)CC(=O)/C=C/c2ccc(OC(=O)CN)c(OC)c2)ccc1OC(=O)CN.Cl.Cl [Compound 33] | 66 | 0.82 ± 0.09 | 67 | 0.69 ± 0.03 | 74 | 0.46 ± 0.03 | 88 | 0.17 ± 0.01 | 42 | 0.48 ± 0.03 | 101
8 | COc1cc(/C=C/C(=O)CC(=O)/C=C/c2ccc(OC(=O)[C@@H](N)Cc3ccccc3)c(OC)c2)ccc1OC(=O)[C@@H](N)Cc1ccccc1.Cl.Cl [Compound 34] | 46 | 1.29 ± 0.14 | 51 | 1.01 ± 0.11 | 63 | 0.66 ± 0.08 | 84 | 0.22 ± 0.03 | 20 | 0.66 ± 0.04 | 97
9 | COc1cc(/C=C/C(=O)CC(=O)/C=C/c2ccc(OC(=O)[C@H](C)N)c(OC)c2)ccc1OC(=O)[C@H](C)N.Cl.Cl [Compound 35] | 37 | 1.51 ± 0.12 | 42 | 1.19 ± 0.10 | 53 | 0.85 ± 0.09 | 66 | 0.47 ± 0.04 | 16 | 0.70 ± 0.06 | 76
10 | COc1cc(/C=C/C(=O)CC(=O)/C=C/c2ccc(OC(=O)C(C)N)c(OC)c2)ccc1OC(=O)C(C)N.Cl.Cl (centres unmarked) [Compound 36] | 54 | 1.11 ± 0.08 | 54 | 0.94 ± 0.09 | 55 | 0.81 ± 0.05 | 84 | 0.22 ± 0.02 | 28 | 0.60 ± 0.06 | 97
11 | COc1cc(/C=C/C(=O)CC(=O)/C=C/c2ccc(OC(=O)[C@@H](C)N)c(OC)c2)ccc1OC(=O)[C@@H](C)N.Cl.Cl [Compound 37] | 61 | 0.95 ± 0.11 | 62 | 0.79 ± 0.13 | 74 | 0.46 ± 0.09 | 96 | 0.06 ± 0.01 | 29 | 0.59 ± 0.07 | 110
12 | COc1cc(/C=C/C(=O)CC(=O)/C=C/c2ccc(OC(=O)CCN)c(OC)c2)ccc1OC(=O)CCN.Cl.Cl [Compound 38] | 69 | 0.74 ± 0.09 | 71 | 0.60 ± 0.06 | 77 | 0.42 ± 0.03 | 89 | 0.16 ± 0.04 | 72 | 0.23 ± 0.01 | 102
13 | COc1cc(/C=C/C(=O)CC(=O)/C=C/c2ccc(OC(=O)[C@@H](N)CCSC)c(OC)c2)ccc1OC(=O)[C@@H](N)CCSC.Cl.Cl [Compound 39] | 64 | 0.86 ± 0.13 | 70 | 0.62 ± 0.11 | 73 | 0.49 ± 0.07 | 97 | 0.04 ± 0.01 | 36 | 0.53 ± 0.03 | 111
